Laboratory results published in US12161114B2, “Overpowered ABA receptor agonists” (The Regents of the University of California, priority 2018, dated 2024).

How the values were obtained:
[1] = tested on: panel of recombinant ABA receptors; PP2C HAB1; experiment: receptor-mediated PP2C inhibition assay, dose response, umbelliferone substrate; type: biochemical, Arabidopsis; settings: 4 nM to 50 μM dose response
Experimental: Each ligand was tested at concentrations spanning 7 points between 4 nM and 50 μM in triplicate in a reaction buffer containing 100 mM Tris-HCl-pH7.9, 100 mM NaCl, 30 μg/ml BSA, 0.1% 2-mercaptoethanol, 25 nM ΔN-HAB1, 1 mM 4-methylumbelliferyl phosphate, and different recombinant ABA receptors at 50 nM or 300 nM (for PYL9 or PYL11). The substrate was added ˜20 minutes after the other components had been mixed and fluorescence data collected. Control carrier solvent-only wells were included as a reference and %-activity for tested compounds calculated relative to this control. The dose response data (PP2C activity versus agonist concentration) was fit to a log (inhibitor) vs. response-(variable slope) model using non-linear regression to infer the IC50S, using GraphPad Prism 6.0, to yield the IC50 values shown in FIG. 6.
The potency and selectivity of ligands 2b, 2e-f was established by testing their ability to activate multiple ABA receptor subtypes using the fluorescence based phosphasted assay as outlined in example 2 at a range of concentrations (4 nM to 50 μM). In addition, we compared ligand potency to ABA, quinabactin and a recently described fluorinated quinabactin analog AMF4, which is reported to have improved potency in comparison toe quinabactin. To conduct the assays purified recombinant receptors were tested at 50 nM or, in the a cases of PYL9 and PYL11, 300 nM and 25 nM ΔN-HAB1. The PP2C-activity dose response data obtained was fit to a log (inhibitor) vs response-(variable slope) model using non-linear regression to infer the IC50S, using GraphPad Prism 6.0, to yield IC50 values as shown in FIG. 12A. […] Moreover, the installation of a single cyclopropyl group ortho to the nitrile (analog 2e) provided a further boost in potency, dramatically so for all subfamily III receptors, PYL4 and PYL11. […] Furthermore, the installation of a second cyclopropyl substituent (analog 2f) provides an even further boot in activity on subfamily III receptors, which comes at the expense of reduced potency on subfamily I receptors. […] 2f is therefore an unusually overpowered ABA receptor agonist, which we refer to as opabactin (Opa).

[2] = tested on: wild type Columbia Arabidopsis thaliana seeds; experiment: Arabidopsis seed germination assay; type: in vivo; settings: Arabidopsis thaliana
Experimental: (§1) Prior to selecting a scaffold for optimization we conducted Arabidopsis seed germination assays to establish if the hits obtained are activity in vivo. Germination experiments were performed with surface sterilized wild type Columbia Arabidopsis thaliana seeds and abi1C (the abi1-1 allele isolated in the Columbia ecotype) plated onto 0.7% agar medium containing 1/2-x MS salts, 0.5% sucrose and differing concentrations of the test compounds. After 4d of stratification at 4° C., the plates were transferred to a growth chamber under continuous illumination and evaluated after 4 days.
To establish if the in vitro potency of Opa translates into improved activity in vivo, we measured the effects of ABA, QB, AMF4, Opa and 2e on Arabidopsis seed germination at a range of concentrations to infer quantitative measures or potency. Methods similar to that described in Example 3 are followed. The percentage of germinated seeds were recorded for each chemical treatment for each concentration in quadruplicate. EC50 values denote the concentrations at which 50% of seeds have been inhibited.

[3] = tested on: pyr1/pyl1, pyl8/pyl9 and abi1C mutants; experiment: seed germination on receptor mutants and ABA signalling mutant abi1C; type: in vivo, Arabidopsis; settings: tested at twice the EC50
Experimental: as §1
Methods similar to example 3 were followed.

PYL2 = biological target: T1, PYL2 (Arabidopsis thaliana, UniProt O80992); experiment: receptor-mediated PP2C inhibition assay, pnPP substrate, PYL2; type: biochemical
T1 construct: 6xHis; made in house
T1 sequence (O80992 1-190): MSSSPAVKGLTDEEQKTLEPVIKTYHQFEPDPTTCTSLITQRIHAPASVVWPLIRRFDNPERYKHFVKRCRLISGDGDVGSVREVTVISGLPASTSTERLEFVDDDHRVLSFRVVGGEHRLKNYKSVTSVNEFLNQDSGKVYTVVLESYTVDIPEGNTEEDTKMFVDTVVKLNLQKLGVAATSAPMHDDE
T1 sequence (Q9CAJ0 180-511 partner): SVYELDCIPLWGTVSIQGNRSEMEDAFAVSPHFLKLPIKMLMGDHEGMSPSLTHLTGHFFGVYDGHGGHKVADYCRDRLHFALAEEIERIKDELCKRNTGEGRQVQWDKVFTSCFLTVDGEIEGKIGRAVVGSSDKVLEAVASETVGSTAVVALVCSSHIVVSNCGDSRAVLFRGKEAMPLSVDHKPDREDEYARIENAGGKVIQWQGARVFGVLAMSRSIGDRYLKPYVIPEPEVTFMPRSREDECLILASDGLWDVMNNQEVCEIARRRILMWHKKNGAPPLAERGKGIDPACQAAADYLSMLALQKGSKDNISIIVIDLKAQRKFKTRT
Experimental: The potency and selectivity of ligand 10H4, a relatively potent member of scaffold 2, was characterized in separate experiments using an absorbance-based assay using the colorimetric substrate p-nitrophenyl phosphate (pNPP), as follows. Purified proteins (100 nM receptor, 50 nM HAB1) were pre-incubated in 160 μl assay buffer containing (100 mM Tris-HCl-pH7.9, 100 mM NaCl, 0.3 μg/mL BSA, 0.1% 2-mercaptoethanol, and 1 mM MnCl2) with ligands for 30 minutes at room temperature. Reactions were started by adding 40 μL of 25 mM p-NPP in assay buffer after which absorbance measurements were immediately collected at 405 nm on Tecan plate reader. The concentrations tested spanned 4 nM to 10 μM and the dose response data obtained was fit to a log (inhibitor) vs response-(variable slope) model using non-linear regression to infer the IC50S, using GraphPad Prism, to yield the IC50 values shown in FIG. 7.
8, no. 1, October 2017, p. 1183. • Daszkowska-Golec, Agata. […]

[4] = tested on: pooled ABA receptors (PYL1, PYL2, PYL4, PYL8, and maize receptor ZmPYLe) with PP2C HAB1; experiment: pooled receptor activation assay (receptor/ligand-mediated inhibition of PP2C HAB1, 4-methylumbelliferyl phosphate); type: biochemical, Arabidopsis; maize; settings: tested in duplicate at 20 μM
Source text: The angiosperm ABA receptor family is large and contains many receptors that cluster into 3 subfamilies. Multiple analyses have shown that agonists of subfamily III receptors are particularly efficacious as antitranspirants, however pan agonists or other new selective agonists may be valuable for crop enhancement. In principle, a docking hit molecule might interact with any or all ABA receptors, creating a large matrix of possible interactions and screening conditions. To expedite the process of screening for new ABA agonists, we developed a pooled receptor screening assay. To do this we selected phylogenetically diverse ABA receptors (PYL1, PYL2, PYL4, PYL8, and maize receptor ZmPYLe), pooled them, and assayed receptor/ligand-mediated inhibition of the PP2C HAB1. The Arabidopsis receptors and PP2C ΔN-HAB1 used were expressed and purified using previously described expression clones and methods (Okamoto et al.) PYL1, PYL2, PYL4, and PYL8 were expressed as 6×-His tags in pET28; ΔN-HAB1 was expressed as 6×-His tag as a truncated form lacking residues 1-179 in pETM-11. ZmPylE (GRMZM2G165567; ZmPYL8 in (He et al.)) was expressed as an MBP fusion protein in pMal-c and expressed and purified as described previously for PYL9 and PYL1 in reference (Okamoto et al.). Assays were conducted in a buffer containing 100 mM Tris-HCl-pH7.9, 100 mM NaCl, 30 μg/ml BSA, 0.1% 2-mercaptoethanol, 100 nM PYL1 and PYL2, 900 nM PYL4 and PYL8, 200 nM ZmPylE, 1 mM 4-methylumbelliferyl phosphate, and 20 μM test compound. The substrate was added ˜20 minutes after the other components had been mixed and fluorescence data collected after substrate addition using a Tecan Infinite F200 Pro fluorimeter. Control carrier solvent-only wells were included as a reference and %-PP2C activity calculated relative to this control. To validate this assay we tested multiple selective and pan-agonists to ensure that their activity could reliably be detected. […]

| SMILES | effect on germination in receptor mutant backgrounds [3] | activity in the pooled receptor assay [4] | further results |
| --- | --- | --- | --- |
| N#Cc1ccc(CC(=O)NC2(C(=O)O)CCCCC2)cc1 [2b, 1-[2-(4-cyanophenyl)acetamido]cyclohexane-1-carboxylic acid] | – | – | potency in receptor-mediated PP2C inhibition (in words) [1]: dramatically improves activity across all receptors tested |
| N#Cc1ccc(CC(=O)NC2(C(=O)O)CCCCC2)cc1C1CC1 [2e, 1-[2-(4-cyano-3-cyclopropylphenyl)acetamido]cyclohexane-1-carboxylic acid] | clearly reduced in the pyr1/pyl1 and pyl8/pyl9 mutant backgrounds | – | potency in receptor-mediated PP2C inhibition (in words) [1]: high potency across all receptors tested; test concentration (twice the EC50 for germination inhibition) ([2]; printed value is twice the EC50, used as test concentration on mutants, read-out: twice the concentrations determined as its EC50 (inhibition of germination) (converted)): 0.22 µM |
| CS(=O)(=O)NC(=O)C1(NC(=O)Cc2ccc(C#N)c(C3CC3)c2)CCCCC1 [2r] | – | – | activity on PYL2 (in words) (PYL2): modestly activity on PYL2 |
| CC1=CC(=O)CC(C)(C)[C@@]1(O)/C=C/C(C)=C\C(=O)O [ABA, Abscisic acid] | clearly reduced in the pyr1/pyl1 and pyl8/pyl9 mutant backgrounds | active | EC50 ([2]; read-out: twice the concentrations determined as its EC50 (inhibition of germination)): 0.6 µM |
| CCCN1C(=O)CCc2cc(NS(=O)(=O)Cc3c(F)c(F)c(C)c(F)c3F)ccc21 [AMF4] | only show diminished activity in the pyr1/pyl1 mutant | – | – |
| O=S(=O)(NCc1ccccn1)c1ccc(Br)c2ccccc12 [pyrabactin] | – | active | – |
| CCCN1C(=O)CCc2cc(NS(=O)(=O)Cc3ccc(C)cc3)ccc21 [quinabactin] | only show diminished activity in the pyr1/pyl1 mutant | active | – |
